Assay results reported in article PMC11071266, “The putative proton-coupled organic cation antiporter is involved in uptake of triptans into human brain capillary endothelial cells” (Fluids and Barriers of the CNS, 2024).
“Also recorded” adds a separate entry of the source. Where two headings read alike, the source gives them in different places.

Assays:
H^+/OC antiporter [1] = assay: Cellular uptake into hCMEC/D3 cells in absence or presence of pyrilamine or oxycodone; format: cell-based, human; settings: triptan 50 µM, asterisks = P level; for Inhibition by oxycodone (of the compound's uptake): 500 µM oxycodone; for Inhibition by pyrilamine (of the compound's uptake): 500 µM pyrilamine
Experimental: (§1) The cells were equilibrated in hHBSS with or without inhibitor for 15 min (37 °C, 90 rpm). The compound of interest was spiked into the hHBSS followed by incubation for a designated time. The timeframe of the initial uptake rate was validated into hCMEC/D3 cells (Fig. 1 and Additional file 1). The experiment was terminated by washing three times with ice-cold HBSS supplemented with 0.0375% (v/v) sodium bicarbonate.
The hCMEC/D3 cells were used for time-dependent uptake studies between passage 3–5 (pyrilamine), 7–9 (oxycodone), 6–8 (almotriptan), and 24–31 (eletriptan).
The hCMEC/D3 cells were used for uptake studies of almotriptan, eletriptan, and sumatriptan in the presence of pyrilamine and oxycodone between passage 21–23.
(§2) The cells were permeabilized using 50% (v/v) acetonitrile (HPLC LC–MS grade, VWR International S.A.S, Soeborg, Denmark) in ultrapure water (ELGA, Buckinghamshire, England) for 10 min at room temperature. Thereafter, the cells were scraped off the bottom of the wells and transferred to HPLC vials. Samples from bidirectional transport experiments were transferred directly into HPLC vials. All samples were stored at – 18 °C for later analysis. Calibration curves with standards in the range of 1 or 5–1000 ng/mL were dissolved in 50% (v/v) acetonitrile in ultrapure water (ELGA, Buckinghamshire, England), or in hHBSS(-) for analysis of bidirectional transport samples.
(§3) Liquid chromatography tandem mass spectrometry (LC–MS/MS) were performed using electrospray ionization in positive mode on a micromass Quattro micro™ API tandem quadrupole mass spectrometer (Waters, MA, USA) or an Ultivo triple quadrupole mass spectrometer (Agilent Technologies, CA, USA) coupled to Agilent HPLC system 1100 Series or 1260 Series (Agilent Technologies, CA, USA California), respectively. Applied columns were an InfinityLab Poroshell 120 EC-C18 (3.0 × 50 mm; 2.7 micron, Agilent Technologies, CA, USA) or a Kinetex 2.6 μm XB-C18 (100 Å, 100 × 4.6 mm, Phenomenex Inc., CA, USA). An overview of applied HPLC and MS/MS parameters can be found in Additional file 2 and Additional file 3, respectively. The data acquisition software was MassLynx (V4.1, Waters, MA, USA).

[2] = Physicochemical properties extracted from databases
Source text: Triptans are a relatively homogeneous group of drug compounds with similar physicochemical properties, including molecular weights < 400 g/mol and a low to moderate lipophilicity (cLogD values ranging from − 2.1–0.18). […] As a consequence, it is unlikely that triptans cross the brain microvascular endothelium through passive diffusion to a clinically relevant extent. Table 1 summarizes structures and physicochemical properties of the triptans, as well as oxycodone and pyrilamine, which are two prototypical H^+/OC antiporter substrates included in this study.

H^+/OC antiporter [3] = assay: Inhibition of [^3H]-pyrilamine uptake into hCMEC/D3 cells; format: cell-based, human; settings: [^3H]-pyrilamine 1 µCi/mL, 48 nM, read-out: Apparent IC50 on [^3H]-pyrilamine uptake
Experimental: (§4) The immortalized human cerebral microvascular endothelial cell line (hCMEC/D3) was maintained in T75-flasks coated with collagen type I from calf skin (C9791, 18.7 μg/mL) and cultured in EBM®-2 medium (Lonza, Basel, Schweiz) supplemented with 5% (v/v) fetal bovine serum (FBS, 10270, Life Technologies, CA, USA or SH3008803, ThermoFisher Scientific, MA, USA), 100 U/mL penicillin and 100 μg/ml streptomycin, 1 ng/mL human basic fibroblast growth factor (bFGF), 1.4 μM hydrocortisone, 1% (v/v) chemically defined lipid concentrate (ThermoFisher Scientific, MA, USA), 10 mM N-2-hydroxyethylpiperazine-N-2-ethane sulfonic acid (HEPES) and 5 μg/mL ascorbic acid (5% CO2, 37 °C). […] For experiments, cells were seeded into 24-well plates (6.7·10^4 cells/cm^2) and cultured for four continuous days. The cells were used for experiments between passage 3–31.
as §1
The inhibitory constant at 50% inhibition (IC50) was determined by fitting the uptake flux (Jss) as function of the logarithmic inhibitor concentration to Eq. 2.2 Jss=Jmin+(Jmax-Jmin)/1+10^logIC50-InH where [I] is the inhibitor concentration, nH is the Hill coefficient.
The hCMEC/D3 cells were used for [^3H]-pyrilamine inhibition studies between passage 3–6 (pyrilamine, oxycodone), 16–18 (almotriptan), 7–13 (eletriptan), 25–27 (frovatriptan), 3–8 (naratriptan), 16–18 (rizatriptan), 12–14 (sumatriptan), and 14–16 (zolmitriptan).
The cells were permeabilized using 0.1% (v/v) Triton X-100 in ultrapure water (ELGA, Buckinghamshire, England) for 10 min at room temperature. Thereafter, the cells were scraped off the bottom of the wells, transferred to scintillation vials, and mixed with 2 mL of Ultima Gold 241 TM (Perkin Elmer, MA, USA). The samples were analyzed using a Tri-Carb 2910 TR Liquid Scintillation Analyzer (Perkin Elmer, MA, USA).

P-gp = P-gp (Homo sapiens, UniProt P08183); assay: Bidirectional transport across IPEC-J2 MDR1 monolayers; settings: pH 7.4
Chain of P-gp (P08183 whole entry): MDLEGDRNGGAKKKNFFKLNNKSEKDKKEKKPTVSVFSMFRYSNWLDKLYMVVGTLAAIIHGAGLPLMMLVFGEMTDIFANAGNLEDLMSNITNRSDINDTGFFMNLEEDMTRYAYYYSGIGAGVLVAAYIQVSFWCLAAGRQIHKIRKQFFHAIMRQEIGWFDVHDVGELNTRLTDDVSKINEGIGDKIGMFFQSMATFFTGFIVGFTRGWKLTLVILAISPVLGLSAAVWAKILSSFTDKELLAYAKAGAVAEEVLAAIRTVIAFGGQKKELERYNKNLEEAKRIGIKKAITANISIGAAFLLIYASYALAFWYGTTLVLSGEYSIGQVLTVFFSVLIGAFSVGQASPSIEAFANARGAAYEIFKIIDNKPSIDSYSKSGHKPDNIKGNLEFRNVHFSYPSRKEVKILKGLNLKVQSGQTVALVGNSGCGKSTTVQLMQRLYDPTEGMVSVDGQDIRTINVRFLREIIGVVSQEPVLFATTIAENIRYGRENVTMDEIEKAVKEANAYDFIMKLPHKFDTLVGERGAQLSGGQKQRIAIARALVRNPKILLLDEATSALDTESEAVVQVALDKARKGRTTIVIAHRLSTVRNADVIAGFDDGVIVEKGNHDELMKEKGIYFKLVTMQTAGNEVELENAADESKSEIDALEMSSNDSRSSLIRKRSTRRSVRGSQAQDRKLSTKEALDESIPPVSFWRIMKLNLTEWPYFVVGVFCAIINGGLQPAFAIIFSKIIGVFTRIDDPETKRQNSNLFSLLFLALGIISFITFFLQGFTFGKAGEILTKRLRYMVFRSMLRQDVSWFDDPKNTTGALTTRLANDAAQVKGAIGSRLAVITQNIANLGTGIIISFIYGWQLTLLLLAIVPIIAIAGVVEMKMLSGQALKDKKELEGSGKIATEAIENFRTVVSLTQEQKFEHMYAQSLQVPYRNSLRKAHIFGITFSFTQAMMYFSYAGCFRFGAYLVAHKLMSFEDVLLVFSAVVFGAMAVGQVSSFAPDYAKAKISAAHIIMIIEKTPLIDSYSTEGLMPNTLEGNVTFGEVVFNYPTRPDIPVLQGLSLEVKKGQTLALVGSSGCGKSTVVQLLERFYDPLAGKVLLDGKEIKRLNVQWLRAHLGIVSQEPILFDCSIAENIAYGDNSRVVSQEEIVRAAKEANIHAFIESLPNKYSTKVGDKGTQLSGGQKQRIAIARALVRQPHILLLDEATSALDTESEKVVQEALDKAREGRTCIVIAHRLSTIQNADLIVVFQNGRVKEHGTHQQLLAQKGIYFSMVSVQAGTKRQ
Experimental: The porcine ileum epithelial cell line IPEC-J2 transfected with human MDR1 [37] was maintained in T175-flasks and cultured in Dulbecco's Modified Eagle Medium/Nutrient Mixture F-12, supplemented with 10% (v/v) FBS (SH3008803, ThermoFisher Scientific, MA, USA), 100 U/mL penicillin and 100 μg/mL streptomycin, 2 mM L-glutamine, and 1 mM sodium pyruvate. The culture medium was supplemented with 2 µg/mL puromycin during maintenance. Culture media was changed every second or third day. Cells were passaged using trypsin–EDTA solution 10x (5–10 min, 5% CO2, 37 °C). For experiments, cells were either seeded into 24-well plates (1·10^5 cells/cm^2) and cultured for 2 days or seeded on Transwell® polyester inserts (3460, 1.12 cm^2, pore size 0.4 µm) (3.57·10^4 cells/cm^2) and cultured for 15–17 days. IPEC-J2 MDR1 cells were used for experiments between passage 2–4.
Bidirectional transport studies were conducted using IPEC-J2 MDR1 cell monolayers cultured on semipermeable Transwell® polyester inserts (Corning Inc., NY, USA, 3460, 1.12 cm^2, pore size 0.4 µm). The cells were washed twice with 37 °C hHBSS. […]
The accumulated amount of drug (Q) was calculated for each time-point using Eq. 3.3 Q=Vs∑n-1nCn-1+CnVt where Vs represents the sample volume, Vt the total volume of the receiver compartment, Cn is the concentration of the sample n.
Steady state flux (Jsteady state) was calculated as the slope of the linear part of the accumulated amount (Q) in the receiver compartment as function of time from Eq. 4.4 Jss=ΔQ/Δt·A where t represents time and A is the area of the permeable support.
The apparent permeability (Papp) was calculated from Eq. 5.5 Papp=Jss/Cdonor where Cdonor represents the initial concentration in the donor compartment.
Efflux ratios (ER) were calculated as the ratio of the apparent permeability in the basolateral to apical direction Papp(B-A) and the permeability in the apical to basolateral direction Papp(A-B) using Eq. 6.6 ER=PappB-A/Papp(A-B)

H^+/OC antiporter [4] = assay: Concentration-dependent cellular uptake into hCMEC/D3 cells (Michaelis-Menten kinetics); format: cell-based, human
Experimental: as §4, §1
To assess the concentration-dependent uptake, the uptake flux was fitted to the Michaelis–Menten equation, Eq. 1.1 Jss=Jmax[S]/Km+[S] where Jss represents flux under steady state, Jmax is the maximal flux, [S] is the substrate concentration, and Km is the Michaelis–Menten constant.
The hCMEC/D3 cells were used for concentration-dependent uptake studies between passage 21–23 (pyrilamine), 11–13 (oxycodone), 12–14 (almotriptan), 16–18 (eletriptan), and 12–14 (sumatriptan).
as §2, §3
The protein content of hCMEC/D3 cells was determined for normalization purposes. Cells were washed with ice-cold phosphate buffered saline following cell lysis in cell extraction buffer (FNN0011, Thermo Fisher Scientific, MA, USA) supplemented with 1 × cOmplete™ Protease Inhibitor Cocktail (04693116001, Roche, Basel, Schweiz), 1 mM phenylmethylsulfonyl fluoride, and […] for 30 min on ice.

[5] = C57, mouse, 1 µM
Source text: C57 mice were used to prepare blank plasma and brain matrices throughout all binding studies.

H^+/OC antiporter [6] = tested on: H^+/OC antiporter; set-up: method as in PMID 35955563; settings: trans-stimulation in hCMEC/D3 cells; cited from earlier work

Structure (SMILES): CN1CCC[C@@H]1Cc1c[nH]c2ccc(CCS(=O)(=O)c3ccccc3)cc12 [Eletriptan]
- Inhibition by oxycodone (of the compound's uptake) (H^+/OC antiporter [1]): yes (*)
- Inhibition by oxycodone (of the compound's uptake) (H^+/OC antiporter [1]; listed as eletriptan): inhibited the uptake of eletriptan in a statistically significant manner
- Inhibition by pyrilamine (of the compound's uptake) (H^+/OC antiporter [1]): yes (****)
- Inhibition by pyrilamine (of the compound's uptake) (H^+/OC antiporter [1]; listed as eletriptan): inhibited the uptake of eletriptan in a statistically significant manner; also recorded: almost be completely inhibited
- Overall charge pH 7.4 [2]: Positive
- IC50 (H^+/OC antiporter [3]; listed as eletriptan): ~15 µM
- IC50 (H^+/OC antiporter [3]): 15 ± 4 µM
- Papp A→B at 120 min, 50 µM (P-gp): 0.82 ± 0.05 ×10⁻⁶ cm/s
- Papp B→A at 120 min, 50 µM (P-gp): 24 ± 2 ×10⁻⁶ cm/s
- efflux ratio at 120 min, 50 µM (P-gp): 28.9 ± 1.8
- Concentration-dependent uptake (saturability) (H^+/OC antiporter [4]; hCMEC/D3 cells, tested concentration range): reaching saturation within a 500 µM concentration
- Association with H^+/OC antiporter (H^+/OC antiporter [4]; summary of uptake and inhibition studies in hCMEC/D3 cells): Substrate potent inhibitor
- Jmax (H^+/OC antiporter [4]; uptake into hCMEC/D3 cells): 2.2 ± 0.7 nmol·min^−1·mg protein^−1
- Km (H^+/OC antiporter [4]; uptake into hCMEC/D3 cells, read-out: Apparent Km): 89 ± 38 µM
- fu,plasma [5]: 40%
- fu,brain ([5]; plasma): 8.3%
- H^+/OC antiporter substrate (H^+/OC antiporter [6]): might be a substrate of the H^+/OC antiporter
